What all share (assay type): cell-based
The target in test [1] is T1, ΔF508-CFTR (Homo sapiens, UniProt P13569, DEL508-508).
T1 construct: host or cells: CFBE41o-, doxycycline-inducible
Briefly: CFTR cell surface levels using HRP-tagged ΔF508-CFTR expressing CFBE cells, in the presence of a co-corrector. The following applies: HRP-tagged ΔF508-CFTR CFBE cells, in the presence of 3 μM co-corrector; for EC50: read-out: EC50. An outline of the steps: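 Chemiluminescent read-out of surface HRP (15 min, dark) after PBS washes. Activity is normalized as 100×(sample−DMSO)/(3 μM co-corrector alone−DMSO).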

The target in test [2] is T2, CFTR ΔF508 (Homo sapiens, UniProt P13569, DEL508-508).
T2 construct: bronchial epithelial cells isolated from CF patients homozygous for the CFTR ΔF508 mutation; McGill University; Asterand; University of North Carolina hAEC-CF; host or cells: primary human bronchial epithelial cells from CF patients homozygous for ΔF508, differentiated at air-liquid interface
Briefly: Chronic TECC assay, primary bronchial epithelial cells of CF patients homozygous for CFTR ΔF508 (corrector, co-corrector and potentiator). The following applies: chronic TECC, AUC = full area under the curve upon forskolin stimulation; for % Activity at 1 μM (AUC**): test compound at 1 μM; for EC50: read-out: EC50 (nM) (AUC**); for % Activity at 3 μM (AUC**): test compound at 3 μM. An outline of the steps:
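Primary bronchial epithelial cells from ΔF508-homozygous CF patients on collagen IV-coated Transwells were chronically treated with test compound plus corrector and potentiator, which were re-added before recording. Ieq was derived from PD and Rt in NaCl-Ringer, pH 7.4, at 37° C, with apical amiloride and bilateral forskolin, recorded every 2 min over 20 min. Ieq increase was normalized to controls, and EC50 was taken from per-well concentrations.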

For test [3], the target named is T1, ΔF508-CFTR. Briefly: CFTR cell surface levels using HRP-tagged ΔF508-CFTR expressing CFBE cells, intrinsic corrector capacity. On the set-up: % Activation: concentration or dose not given beside the values. The following applies: HRP-tagged ΔF508-CFTR expressing CFBE41o- cells, compound alone (intrinsic corrector capacity), 20 hours at 33° C.; for EC50: read-out: EC50. The method in brief:
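Read-out: chemiluminescent HRP activity of ECL4-HRP-tagged ΔF508-CFTR at the cell surface, 15 min substrate in dark. Normalized as 100×(sample−DMSO)/(positive control−DMSO).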

As a reminder, the EC50 is the midpoint of the concentration-response curve.

T2 sequence (P13569 with tags, fused parts or gaps DEL508-508): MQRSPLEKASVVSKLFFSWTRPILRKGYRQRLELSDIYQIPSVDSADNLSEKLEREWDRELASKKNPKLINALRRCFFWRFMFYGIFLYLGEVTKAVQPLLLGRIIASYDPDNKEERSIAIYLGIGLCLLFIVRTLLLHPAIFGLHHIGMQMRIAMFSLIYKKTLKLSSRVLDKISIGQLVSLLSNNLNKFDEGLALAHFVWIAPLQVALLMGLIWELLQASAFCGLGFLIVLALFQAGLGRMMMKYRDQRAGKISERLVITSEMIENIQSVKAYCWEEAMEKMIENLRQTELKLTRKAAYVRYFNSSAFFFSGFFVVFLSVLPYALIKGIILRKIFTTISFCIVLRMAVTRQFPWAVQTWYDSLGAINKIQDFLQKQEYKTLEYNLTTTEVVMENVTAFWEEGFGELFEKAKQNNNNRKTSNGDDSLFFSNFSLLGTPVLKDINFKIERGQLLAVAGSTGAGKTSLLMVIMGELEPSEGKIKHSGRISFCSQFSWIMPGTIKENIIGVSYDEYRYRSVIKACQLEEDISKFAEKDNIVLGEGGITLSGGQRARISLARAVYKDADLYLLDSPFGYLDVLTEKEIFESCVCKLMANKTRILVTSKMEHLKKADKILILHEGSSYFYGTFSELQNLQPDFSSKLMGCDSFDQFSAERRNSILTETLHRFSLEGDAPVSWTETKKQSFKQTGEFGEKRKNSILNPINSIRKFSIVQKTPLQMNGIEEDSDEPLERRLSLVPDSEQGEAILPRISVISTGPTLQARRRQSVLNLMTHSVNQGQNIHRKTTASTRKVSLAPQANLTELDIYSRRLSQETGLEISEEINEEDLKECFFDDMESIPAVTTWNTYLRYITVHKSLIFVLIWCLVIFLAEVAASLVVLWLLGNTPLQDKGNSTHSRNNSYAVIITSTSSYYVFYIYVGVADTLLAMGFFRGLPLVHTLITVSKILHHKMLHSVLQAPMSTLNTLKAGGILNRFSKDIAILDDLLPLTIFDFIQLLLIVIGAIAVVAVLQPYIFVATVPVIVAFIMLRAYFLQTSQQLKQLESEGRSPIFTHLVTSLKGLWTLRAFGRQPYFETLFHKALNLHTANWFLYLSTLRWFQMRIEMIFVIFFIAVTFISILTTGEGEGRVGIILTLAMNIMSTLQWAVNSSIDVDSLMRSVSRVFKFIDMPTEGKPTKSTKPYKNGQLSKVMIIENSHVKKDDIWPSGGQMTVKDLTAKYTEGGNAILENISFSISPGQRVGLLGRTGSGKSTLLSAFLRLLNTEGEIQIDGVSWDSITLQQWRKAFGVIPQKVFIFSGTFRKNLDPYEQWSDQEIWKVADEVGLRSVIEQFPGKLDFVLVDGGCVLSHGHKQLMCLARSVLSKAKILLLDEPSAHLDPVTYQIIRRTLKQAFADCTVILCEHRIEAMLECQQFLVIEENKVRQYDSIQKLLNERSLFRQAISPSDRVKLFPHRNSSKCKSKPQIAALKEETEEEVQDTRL
T1 sequence (P13569 with tags, fused parts or gaps DEL508-508): as above

With `O=C(NS(=O)(=O)N1CCOCC1)c1cc(N2CCC(N3CCOCC3)CC2)c2c(C3CCC3)nn(-c3ccc(F)cc3)c2n1` [Compound 487, 3-cyclobutyl-1-(4-fluorophenyl)-N-(morpholine-4-sulfonyl)-4-[4-(morpholin-4-yl)piperidin-1-yl]-1H-pyrazolo[3,4-b]pyridine-6-carboxamide], in test [1], the “% Activation” value is on record as 404.63% and the EC50 is 69 nM. In test [2], the “% Activity at 1 μM (AUC**)” value was 340%. For the same compound, in test [3], the “% Activation” value worked out at 203.53% and the EC50 is 175 nM.
For the compound `CC(=O)N1CCN(C2CCN(c3cc(C(=O)NS(=O)(=O)N(C)C)nc4c3c(C3CCC3)nn4-c3ccc(F)cc3)CC2)CC1` [Compound 493, 4-[4-(4-acetylpiperazin-1-yl)piperidin-1-yl]-3-cyclobutyl-N-(dimethylsulfamoyl)-1-(4-fluorophenyl)-1H-pyrazolo[3,4-b]pyridine-6-carboxamide], in test [1], the “% Activation” value came out at 480.78% and the EC50 was 94.6 nM. In test [2], the EC50 is 371 nM and the “% Activity at 1 μM (AUC**)” value came to 271.4141%. Besides, in test [3], the “% Activation” value worked out at 275.2% and the EC50 came to 175 nM.
`O=C(NS(=O)(=O)C1CCOC1)c1cc(N2CCC(CN3CCOCC3)CC2)c2c(C3CCC3)nn(-c3ccc(F)cc3)c2n1` (stereo not drawn) [Compound 495, 3-cyclobutyl-1-(4-fluorophenyl)-4-{4-[(morpholin-4-yl)methyl]piperidin-1-yl}-N-(oxolane-3-sulfonyl)-1H-pyrazolo[3,4-b]pyridine-6-carboxamide]: in test [1], the “% Activation” value worked out at 469.08% and the EC50 is 66.2 nM. The “% Activity at 3 μM (AUC**)” value in test [2] is given as 262.4635%. Further, in test [3], the “% Activation” value amounted to 242.05% and the EC50 stood at 217 nM.
For the compound `CN(C)S(=O)(=O)NC(=O)c1cc(N2CCC(N3CCC(C#N)CC3)CC2)c2c(C3CCC3)nn(-c3ccc(F)cc3)c2n1` [Compound 522, 4-(4-cyano[1,4'-bipiperidin]-1'-yl)-3-cyclobutyl-N-(dimethylsulfamoyl)-1-(4-fluorophenyl)-1H-pyrazolo[3,4-b]pyridine-6-carboxamide], in test [1], the “% Activation” value worked out at 525.66% and the EC50 was 79.8 nM. In addition, in test [2], the EC50 was 21.9 nM and the “% Activity at 1 μM (AUC**)” value came to 666.6667%. For the same compound, in test [3], the “% Activation” value turned out to be 317.9% and the EC50 was determined as 114 nM.
For the compound `CN(C)S(=O)(=O)NC(=O)c1cc(N2CCC(N3CC(C#N)C3)CC2)c2c(C3CCC3)nn(-c3ccc(F)cc3)c2n1` [Compound 523, 4-[4-(3-cyanoazetidin-1-yl)piperidin-1-yl]-3-cyclobutyl-N-(dimethylsulfamoyl)-1-(4-fluorophenyl)-1H-pyrazolo[3,4-b]pyridine-6-carboxamide], the “% Activation” value in test [1] came to 451.33%; in test [3], 236.53%. In addition, the EC50 was 100 nM in test [1] and 124 nM in test [3]. The “% Activity at 3 μM (AUC**)” value in test [2] is 460.2177%.
As for `CN(C)S(=O)(=O)NC(=O)c1cc(N2CCC(N3CCC(F)CC3)CC2)c2c(C3CCC3)nn(-c3ccc(F)cc3)c2n1` [Compound 525, 3-cyclobutyl-N-(dimethylsulfamoyl)-4-(4-fluoro[1,4'-bipiperidin]-1'-yl)-1-(4-fluorophenyl)-1H-pyrazolo[3,4-b]pyridine-6-carboxamide], in test [1], the “% Activation” value was determined as 460.3% and the EC50 amounted to 74 nM. In addition, in test [2], the EC50 was determined as 50.3 nM and the “% Activity at 1 μM (AUC**)” value turned out to be 477.2665%. For the same compound, in test [3], the “% Activation” value came to 274.75% and the EC50 was found to be 138 nM.
Regarding `CN(C)S(=O)(=O)NC(=O)c1cc(N2CCC(N3CCC(F)(F)CC3)CC2)c2c(C3CCC3)nn(-c3ccc(F)cc3)c2n1` [Compound 526, 3-cyclobutyl-4-(4,4-difluoro[1,4'-bipiperidin]-1'-yl)-N-(dimethylsulfamoyl)-1-(4-fluorophenyl)-1H-pyrazolo[3,4-b]pyridine-6-carboxamide], the entries for the “% Activation” value in test [1] and in test [3] were 472.58% and 269.23%, respectively. Besides, the EC50 amounted to 107 nM in test [1], 14.2 nM in test [2] and 153 nM in test [3]. In addition, the “% Activity at 1 μM (AUC**)” value in test [2] is listed as 400%.
Consider `CN(C)S(=O)(=O)NC(=O)c1cc(N2CCC(N3CCOC(C#N)C3)CC2)c2c(C3CCC3)nn(-c3ccc(F)cc3)c2n1` (stereo not drawn) [Compound 527, 4-[4-(2-cyanomorpholin-4-yl)piperidin-1-yl]-3-cyclobutyl-N-(dimethylsulfamoyl)-1-(4-fluorophenyl)-1H-pyrazolo[3,4-b]pyridine-6-carboxamide], for which, in test [1], the “% Activation” value turned out to be 500% and the EC50 was 53.8 nM. For the same compound, the “% Activity at 1 μM (AUC**)” value in test [2] stood at 370.693%. In test [3], the “% Activation” value is given as 295.95% and the EC50 was 79.1 nM.
As to `CC(C)Oc1cc(-n2nc(C3CCC3)c3c(N4CCC(N5CCOCC5)CC4)cc(C(=O)NS(=O)(=O)N(C)C)nc32)ccn1` [Compound 529, 3-cyclobutyl-N-(dimethylsulfamoyl)-4-[4-(morpholin-4-yl)piperidin-1-yl]-1-{2-[(propan-2-yl)oxy]pyridin-4-yl}-1H-pyrazolo[3,4-b]pyridine-6-carboxamide], the results for the “% Activation” value in test [1] and in test [3] were 444.13% and 278.55%, respectively. In addition, the EC50 in test [1] was determined as 22.6 nM; in test [2] it was 19.1 nM; in test [3], 60.6 nM. Besides, the “% Activity at 1 μM (AUC**)” value in test [2] is 520%.
`CC(C)Oc1cc(-n2nc(C3CCC3)c3c(N4CCC(N5CCOCC5)CC4)cc(C(=O)NS(C)(=O)=O)nc32)ccn1` [Compound 530, 3-cyclobutyl-N-(methanesulfonyl)-4-[4-(morpholin-4-yl)piperidin-1-yl]-1-{2-[(propan-2-yl)oxy]pyridin-4-yl}-1H-pyrazolo[3,4-b]pyridine-6-carboxamide]: in test [1], the “% Activation” value amounted to 464.6% and the EC50 is 23 nM. Moreover, in test [2], the “% Activity at 1 μM (AUC**)” value came to 326.6667%. In addition, in test [3], the “% Activation” value is given as 323.1% and the EC50 came to 54.4 nM.
With `Cc1cc(N2CCN(c3cc(C(=O)NS(=O)(=O)N(C)C)nc4c3c(C3CCC3)nn4C3CCCCC3)CC2)ccn1` [Compound 535, 3-cyclobutyl-1-cyclohexyl-N-(dimethylsulfamoyl)-4-[4-(2-methylpyridin-4-yl)piperazin-1-yl]-1H-pyrazolo[3,4-b]pyridine-6-carboxamide], in test [1], the “% Activation” value stood at 670.35% and the concentration for a half-maximal effect (EC50) was found to be 1250 nM. Further, in test [2], the “% Activity at 1 μM (AUC**)” value was 335.0294%. Besides, in test [3], the “% Activation” value is reported as 385.8% and the EC50 was found to be 389 nM.
Consider `O=C(NS(=O)(=O)N1CCC(F)C1)c1cc(N2CCC(N3CCOCC3)CC2)c2c(C3CCC3)nn(-c3ccc(F)cc3)c2n1` (stereo not drawn) [Compound 537, 3-cyclobutyl-1-(4-fluorophenyl)-N-(3-fluoropyrrolidine-1-sulfonyl)-4-[4-(morpholin-4-yl)piperidin-1-yl]-1H-pyrazolo[3,4-b]pyridine-6-carboxamide], for which, in test [1], the “% Activation” value stood at 417.1% and the EC50 was 50.8 nM. The “% Activity at 3 μM (AUC**)” value in test [2] amounted to 261.5724%. Further, in test [3], the “% Activation” value is 214.5% and the EC50 amounted to 112 nM.
Take `CN(C)S(=O)(=O)NC(=O)c1cc(N2CCC(N3CCC(F)C3)CC2)c2c(C3CCC3)nn(-c3ccc(F)cc3)c2n1` (stereo not drawn) [Compound 541, 3-cyclobutyl-N-(dimethylsulfamoyl)-1-(4-fluorophenyl)-4-[4-(3-fluoropyrrolidin-1-yl)piperidin-1-yl]-1H-pyrazolo[3,4-b]pyridine-6-carboxamide]: in test [1], the “% Activation” value was found to be 457.2% and the EC50 is 115 nM. For the same compound, the “% Activity at 1 μM (AUC**)” value in test [2] is on record as 320%. In addition, in test [3], the “% Activation” value is 231.7% and the EC50 came to 444 nM.
Consider `CC(C)Oc1nn(C2CCCCC2)c2nc(C(=O)NS(=O)(=O)N(C)C)cc(-c3ccc(C(=O)N4CCC(N(C)C)CC4)cc3)c12` [Compound 546, 1-cyclohexyl-4-{4-[4-(dimethylamino)piperidine-1-carbonyl]phenyl}-N-(dimethylsulfamoyl)-3-[(propan-2-yl)oxy]-1H-pyrazolo[3,4-b]pyridine-6-carboxamide], for which the figures for the “% Activation” value in test [1] and in test [3] were 335.3% and 138.05%, respectively. For the same compound, the EC50 in test [1] came to 182 nM; in test [3], 325 nM. The “% Activity at 3 μM (AUC**)” value in test [2] is on record as 282.0317%.

The values are drawn from patent US10259810B2, “N-sulfonylated pyrazolo[3,4-b]pyridin-6-carboxamides and method of use” (AbbVie S.à.r.l., priority 2015, dated 2019).
